Reference: EP0962457B1, “Piperidones as tachykinin antagonists” (Pfizer Limited, priority 1998, dated 1999)
Like-named read-outs stand apart in the source and are kept apart here.

Experiments:
human NK2 receptor = biological target: T1, human NK2 receptor (Homo sapiens, UniProt P21452); assay: NK2 receptor affinity: competition with [3H]-NKA for binding to membranes of Chinese hamster ovary cells expressing the cloned human NK2 receptor; settings: CHO cell membranes, 90 min, 25°C, read-out: NK2 receptor affinity (pKi) (converted)
T1 construct: expressed in transfected cells; host or cells: Chinese hamster ovary cells (membranes)
T1 sequence (P21452 1-398): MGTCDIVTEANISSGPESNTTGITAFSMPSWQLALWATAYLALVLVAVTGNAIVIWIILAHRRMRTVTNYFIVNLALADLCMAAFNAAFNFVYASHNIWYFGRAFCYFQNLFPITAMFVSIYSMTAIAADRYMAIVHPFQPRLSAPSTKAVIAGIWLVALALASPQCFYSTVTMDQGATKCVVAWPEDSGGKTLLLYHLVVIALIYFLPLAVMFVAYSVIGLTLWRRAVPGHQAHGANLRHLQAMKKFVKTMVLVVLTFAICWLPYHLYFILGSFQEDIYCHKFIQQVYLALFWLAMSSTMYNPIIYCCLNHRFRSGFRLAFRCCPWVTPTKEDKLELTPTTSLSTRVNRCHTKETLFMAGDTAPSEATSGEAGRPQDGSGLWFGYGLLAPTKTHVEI
Method: The affinity of the compounds of formula (I) and their salts for the human NK2 receptor can be tested in vitro by testing their ability to compete with [^3H]-NKA (neurokinin A) for binding to membranes prepared from Chinese hamster ovary cells expressing the cloned human NK2 receptor. In this method, washed Chinese hamster ovary cell membranes are prepared as described for the previous method where IM9 cells are used instead. The membranes are incubated (90 min, 25°C) with [^3H]-NKA and with a range of concentrations of the test compound. Non-specific binding was determined in the presence of 10µM NKA.
The affinity of the compounds of Tables 1 and 2 for the human NK2 receptor was tested in vitro by testing their ability to compete with [^3H]-NKA for binding to membranes prepared from Chinese hamster ovary cells expressing the cloned human NK2 receptor using the method set out on page 9.
(§1) In Tables 1 and 2 the "pKi" measurement is the negative logarithm of the molar affinity of the test compound for the receptor as determined in radioligand binding assays using standard protocols. A 1.0 log. unit difference in either the NK2 or NK3 receptor affinity figures corresponds to a 10-fold activity difference.

[1] = In vitro metabolic stability: disappearance half-life in human liver microsomes (HLM/37); format: in vitro ADME; settings: human liver microsomes HLM/37, test compound 1µM, 37°C, 60 minutes, NADPH, read-out: Metabolic stability (t½)
Method: The in vitro metabolic stability of the compounds of the formula (I) and their salts can be tested by incubating samples for 1 hour at 37°C in the presence of a "moderate activity" (re. concentrations of cytochrome p450 enzymes present) human liver microsomal preparation (prepared from human liver homogenates). The samples were analysed by HPLC at regular intervals during this one hour period and the half-life (t½) determined (in minutes).
The metabolic stability of the compounds of Tables 1 and 2 was determined in vitro by the method described on page 10 according to the following experimental protocol.
Transplant-quality human liver tissue was obtained from the International Institute for the Advancement of Medicine (Exton, PA). The donors ranged in age from 26 to 65 years old and included 3 males and 3 females. Hepatic microsomes were prepared from individual human livers by the process of differential centrifugation. Briefly, the liver tissue was homogenised in 50mM Tris HCI (pH 7.4) containing 250mM sucrose and then centrifuged at 9,000G for 20 minutes to remove the cell debris and nuclear fraction. The supernatant layer was removed and further centrifuged at 105,000G for 60 minutes to pellet the microsomal fraction. […] The cytochrome P450 content was determined using the method of Omura, T., Sato, R., J. Biol. Chem., 239, 2379-2385 (1964) and the protein concentration was determined using the method of Lowry et al., J. Biol. Chem., 193, 265-275 (1951), with bovine serum albumin as the protein standard.
The metabolic activities of the 6 major drug metabolising cytochrome P450 enzymes were determined for HLM/37 and compared to values obtained from a bank of individual human livers (n = 19). […]
Aliquots (100µl) were removed from the incubation at 0, 3, 5, 10, 15, 20, 30, 45 and 60 minutes after the addition of NADPH. […] After centrifugation 150µl aliquots were removed and 120µl of each of these analysed by HPLC on a Hypersil HS C18 5µ column (50x4.6mm) with a mobile phase of methanol:water (90:10, by volume) containing 2mM ammonium acetate. […]

NK3 receptor = biological target: T2, NK3 receptor (Cavia porcellus, UniProt P30098); assay: NK3 receptor affinity: inhibition of [3H]-senktide binding to membranes from guinea pig cortex; settings: read-out: NK3 receptor affinity (pKi) (converted)
T2 construct: membranes from guinea pig cortex; from tissue; host or cells: guinea pig cortex membranes
T2 sequence (P30098 1-440): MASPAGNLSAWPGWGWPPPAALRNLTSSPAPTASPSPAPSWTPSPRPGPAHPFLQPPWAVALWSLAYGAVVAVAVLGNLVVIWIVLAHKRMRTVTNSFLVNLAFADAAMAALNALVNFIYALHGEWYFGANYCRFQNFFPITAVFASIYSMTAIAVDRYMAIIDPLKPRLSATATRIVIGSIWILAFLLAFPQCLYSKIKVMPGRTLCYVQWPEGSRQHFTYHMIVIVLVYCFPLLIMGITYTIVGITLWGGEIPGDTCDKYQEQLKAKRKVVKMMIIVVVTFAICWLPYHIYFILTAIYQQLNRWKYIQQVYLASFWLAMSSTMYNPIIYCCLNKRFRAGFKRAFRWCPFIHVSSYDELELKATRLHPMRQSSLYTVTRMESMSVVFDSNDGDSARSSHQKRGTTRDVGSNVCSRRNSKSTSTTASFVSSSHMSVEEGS
Method: The compounds of the formula (I) and their salts can be tested for NK3 receptor affinity, in vitro, by testing their ability to inhibit [^3H]-senktide binding to membranes from guinea pig cortex using the method of Guard, et al, Br.J.Pharmacol., 99, 767-773 (1990).
The compounds of Tables 1 and 2 were tested for NK3 receptor affinity, in vitro, by the method described on pages 9 and 10 by testing their ability to inhibit [^3H]-senktide binding to membranes from guinea pig cortex using the method of Guard, et al, Br.J.Pharmacol., 99, 767-773 (1990).
as §1

| Ki (human NK2 receptor) | half-life at 1 µM ([1]; pH 7.4) | Ki (NK3 receptor) | Structure (SMILES) | half-life at 1 µM [1] |
| --- | --- | --- | --- | --- |
| 3.98 nM | 1.25 h | – | CS(=O)(=O)N1CCC(C2CN(CC[C@]3(c4ccc(Cl)c(Cl)c4)CCC(=O)N(CC4CC4)C3)C2)CC1 [Example 1, (5S)-1-(Cyclopropylmethyl)-5-(3,4-dichlorophenyl)-5-(2-[3-[1-(methylsulfonyl)-4-piperidinyl]-1-azetanyl]ethyl)tetrahydro-2(1H)-pyridinone] | – |
| 6.31 nM | – | – | CCS(=O)(=O)N1CCC(C2CN(CC[C@]3(c4ccc(Cl)c(Cl)c4)CCC(=O)N(CC4CC4)C3)C2)CC1 [Example 8, (5S)-1-(Cyclopropylmethyl)-5-(3,4-dichlorophenyl)-5-(2-[3-[1-(ethylsulfonyl)-4-piperidinyl]-1-azetanyl]ethyl)tetrahydro-2(1H)-pyridinone] | – |

Second part, the compound before the results:

| Structure (SMILES) | Ki (human NK2 receptor) | half-life at 1 µM ([1]; pH 7.4) | Ki (NK3 receptor) | half-life at 1 µM [1] |
| --- | --- | --- | --- | --- |
| CS(=O)(=O)N1CCC(C2CN(CC[C@]3(c4ccc(Cl)c(F)c4)CCC(=O)N(CC4CC4)C3)C2)CC1 [Example 2] | 2.51 nM | – | – | > 2 h |
| CS(=O)(=O)N1CCC(C2CN(CC[C@]3(c4ccc(Cl)c(Cl)c4)CCC(=O)N(CCC4CC4)C3)C2)CC1 [Example 3] | – | – | – | 0.45 h |
| CS(=O)(=O)N1CCC(C2CN(CC[C@]3(c4ccc(Cl)c(Cl)c4)CCC(=O)N(Cc4ccccc4)C3)C2)CC1 [Example 4] | 1.26 nM | – | – | – |
| CS(=O)(=O)N1CCC(C2CN(CC[C@]3(c4ccc(Cl)c(Cl)c4)CCC(=O)N(C4CCCC4)C3)C2)CC1 [Example 5] | 1 nM | – | 25.1 nM | – |
| CS(=O)(=O)N1CCC(C2CN(CC[C@]3(c4ccc(Cl)c(Cl)c4)CCC(=O)N(CC4CCCCC4)C3)C2)CC1 [Example 6] | 20 nM | – | 5.01 nM | – |
| CS(=O)(=O)N1CCC(C2CN(CC[C@]3(c4ccc(F)c(F)c4)CCC(=O)N(C4CCCCC4)C3)C2)CC1 [Example 7] | 3.16 nM | – | – | – |
